This experiment has as its target human V1a receptor (Homo sapiens, UniProt P37288). Kind of experiment: Human vasopressin V1a receptor binding assay. The note with it: competitive binding against 1 nM 3H-AVP, hV1a cell line (CHO cells), 45 minutes at 37° C. The protocol: A cell line expressing the human V1a receptor in CHO cells (henceforth referred to as the hV1a cell line) was obtained from Dr. Michael Brownstein, NIMH, Bethesda, Md., USA. The hV1a cDNA sequence is described by Thibonnier et al., Journal of Biological Chemistry, 269:3304-3310 (1994), and the expression method was the same as described by Morel et al. (1992). The hV1a cell line was grown in alpha-MEM with 10% fetal bovine serum and 250 ug/ml G418 (Gibco, Grand Island, N.Y., USA). For competitive binding assay, hV1a cells were plated into 6-well culture plate at 1:10 dilution from a confluency flask, and maintained in culture for at least two days. Culture medium was then removed, cells were washed with 2 ml binding buffer (25 mM Hepes, 0.25% BSA, 1×DMEM, PH=7.0). To each well, 990 μl binding buffer containing 1 nM 3H-AVP was added, and followed by 10 μl series diluted Example compounds dissolved in DMSO. All incubations were in triplicate, and dose-inhibition curves consisted of total binding (DMSO) and 5 concentrations (0.1, 1.0, 10, 100, and 1000 nM) of test agents encompassing the IC50. 100 nM cold AVP (Sigma) was used to assess non-specific binding. […] Samples were counted in a liquid scintillation counter (Beckman LS3801). IC50 values were calculated by Prism Curve fitting software.

Chain of human V1a receptor (P37288 whole entry): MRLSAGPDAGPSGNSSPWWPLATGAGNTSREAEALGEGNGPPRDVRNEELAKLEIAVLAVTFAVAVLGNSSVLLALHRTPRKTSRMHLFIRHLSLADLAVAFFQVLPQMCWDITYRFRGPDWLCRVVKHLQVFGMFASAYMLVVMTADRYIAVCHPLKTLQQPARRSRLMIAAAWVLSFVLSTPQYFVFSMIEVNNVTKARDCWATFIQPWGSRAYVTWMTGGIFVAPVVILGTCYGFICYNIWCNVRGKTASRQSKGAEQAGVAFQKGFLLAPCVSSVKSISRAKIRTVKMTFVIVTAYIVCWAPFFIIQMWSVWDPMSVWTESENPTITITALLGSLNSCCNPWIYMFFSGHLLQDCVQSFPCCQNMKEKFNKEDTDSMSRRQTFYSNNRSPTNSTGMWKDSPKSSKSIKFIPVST

With `C[C@@]1(N2C(=O)OC[C@@H]2c2ccccc2)C(=O)N([C@H](CC(=O)N2CCC(N3CCCCC3)CC2)C(=O)NCc2cccc(C(F)(F)F)c2)[C@@H]1/C=C/c1ccccc1` [Example 33, 4-(Piperidin-1-yl)-piperidin-1-yl 3(R)-[3(S)-(4(S)-phenyloxazolidin-2-on-3-yl)-3-methyl-4(R)-(styr-2-yl)azetidin-2-on-1-yl]-3-[(3-trifluoromethyl)phenylmethylaminocarbonyl]propanoic acid], the concentration for half-maximal inhibition (IC50) – broadly, the concentration that inhibits the measured activity by half – came to 5 nM.
